From patent US20240041042A1, “1-(PYRIDYL)-5-AZINYLPYRAZOLE DERIVATIVES, AND THEIR USE FOR CONTROL OF UNDESIRED PLANT GROWTH” (Bayer Aktiengesellschaft, priority 2020, published 2024)

How the values were obtained:
Format in all cases: in vivo
[1] = tested on: Echinochloa crus-galli (ECHCG); test: Pre-emergence herbicidal action against ECHCG; settings: dosage 320 g/ha
How it was run: (§1)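 Greenhouse pot trial: seeds sown, soil-covered, sprayed before emergence with compound in water (0.5% additive; 600 l/ha; ≤320 g/ha). Scoring visual, ~3 weeks, 0–100% scale vs untreated.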

[2] = tested on: Abutilon theophrasti (ABUTH); test: Pre-emergence herbicidal action against ABUTH; settings: Dosage column 320 g/ha (title prints 3200 g/ha); scored visually after about 3 weeks; 100% = plants have died
From the text: Seeds of monocotyledonous and dicotyledonous weed plants and crop plants are placed in plastic or organic planting pots and covered with soil. The compounds of the invention, formulated in the form of wettable powders (WP) or as emulsion concentrates (EC), are then applied to the surface of the covering soil as aqueous suspension or emulsion with addition of 0.5% additive at a water application rate equivalent to 600 l/ha. After the treatment, the pots are placed in a greenhouse and kept under good growth conditions for the trial plants. After about 3 weeks, the effect of the preparations is scored visually in comparison with untreated controls as percentages. For example, 100% activity=the plants have died, 0% activity=like control plants.
Tables A1 to A13 below show the effects of selected compounds of the general formula (I) on various harmful plants and at an application rate corresponding to 320 g/ha or lower, which were obtained by the experimental procedure mentioned above. The appendices “a”, “b” and “c” give differentiation by dosage used with otherwise the same harmful plants tested.

[3] = tested on: Matricaria inodora (MATIN); test: Pre-emergence herbicidal action against MATIN; settings: dosage 320 g/ha
How it was run: as §1

[4] = tested on: Verconica persica (VERPE); test: Post-emergence herbicidal action against VERPE; settings: 320 g/ha, VERPE
How it was run: (§2)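 Rates were 320 g/ha or below, applied as aqueous WP/EC spray with 0.5% additive (600 l/ha) onto one-leaf-stage plants. About 3 weeks later in the greenhouse, damage was scored visually against untreated plants on a 0–100% scale, where 100% means plants died.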

Avena fatua (AVEFA) [5] = test: Pre-emergence herbicidal action against AVEFA; settings: visual scoring after about 3 weeks vs untreated controls
How it was run: as §1

[6] = tested on: Alopecurus myosuroides (ALOMY); test: Pre-emergence herbicidal action against ALOMY; settings: scored visually after about 3 weeks, 100% = plants have died
How it was run: as §1

Setaria viridis (SETVI) [7] = test: Post-emergence herbicidal action against SETVI; settings: dosage 320 g/ha
How it was run: as §2

[8] = tested on: Echinochloa crus-galli (ECHCG); test: Post-emergence herbicidal action against ECHCG; settings: dosage 320 g/ha
How it was run: as §2

[9] = tested on: Amaranthus retroflexus (AMARE); test: Post-emergence herbicidal action against AMARE
How it was run: as §2

[10] = tested on: Polygonum convolvulus (POLCO); test: Pre-emergence herbicidal action against POLCO
How it was run: as §1

[11] = tested on: Pharbitis purpurea (PHBPU); test: Pre-emergence herbicidal action against PHBPU; settings: dosage 320 g/ha
How it was run: as §1

Lolium rigidum (LOLRI) [12] = test: Pre-emergence herbicidal action against LOLRI
How it was run: as §1

[13] = tested on: Polygonum convolvulus (POLCO); test: Post-emergence herbicidal action against POLCO; settings: dosage 320 g/ha
How it was run: as §2

Lolium rigidum (LOLRI) [14] = test: Post-emergence herbicidal action against LOLRI
How it was run: as §2

[15] = tested on: Alopecurus myosuroides (ALOMY); test: Post-emergence herbicidal action against ALOMY; settings: visual rating about 3 weeks after treatment vs untreated controls (100% = plants have died, 0% = like control plants)
How it was run: as §2

Viola tricolor (VIOTR) [16] = test: Post-emergence herbicidal action against VIOTR
How it was run: as §2

Setaria viridis (SETVI) [17] = test: Pre-emergence herbicidal action against SETVI; settings: dosage 320 g/ha
How it was run: as §1

[18] = tested on: Verconica persica (VERPE); test: Pre-emergence herbicidal action against VERPE; settings: dosage 320 g/ha
How it was run: as §1

[19] = tested on: Amaranthus retroflexus (AMARE); test: Pre-emergence herbicidal action against AMARE; settings: visual scoring after about 3 weeks vs untreated controls
How it was run: as §1

Avena fatua (AVEFA) [20] = test: Post-emergence herbicidal action against AVEFA; settings: visual rating about 3 weeks after treatment
How it was run: as §2

Viola tricolor (VIOTR) [21] = test: Pre-emergence herbicidal action against VIOTR
How it was run: as §1

[22] = tested on: Pharbitis purpurea (PHBPU); test: Post-emergence herbicidal action against PHBPU
How it was run: as §2

SMILES: C[C@@H](Oc1nn(-c2ccccn2)c(-c2cncnc2)c1Cl)C(=O)O [Example I-20]
- Pre-emergence action against ECHCG in % [1]: 100%
- Pre-emergence action against ABUTH [2]: 90%
- Pre-emergence action against MATIN in % [3]: 100%
- Post-emergence action against VERPE in % [4]: 80%
- Pre-emergence action against AVEFA in % (Avena fatua (AVEFA) [5]; 80 g/ha): 90%
- Pre-emergence action against AVEFA in % (Avena fatua (AVEFA) [5]; 320 g/ha): 100%
- Pre-emergence action against ALOMY ([6]; 80 g/ha): 90%
- Pre-emergence action against ALOMY ([6]; 320 g/ha): 100%
- Post-emergence action against SETVI in % (Setaria viridis (SETVI) [7]): 90%
- Post-emergence action against ECHCG in % [8]: 80%
- Post-emergence action against AMARE in % ([9]; 80 g/ha, visual rating about 3 weeks after treatment vs untreated controls (100% = plants have died, 0% = like control plants)): 90%
- Post-emergence action against AMARE in % ([9]; 320 g/ha, visual rating about 3 weeks after treatment): 90%
- Pre-emergence action against POLCO in % ([10]; dosage 80 g/ha): 90%
- Pre-emergence action against POLCO in % ([10]; dosage 320 g/ha): 100%
- Pre-emergence action against PHBPU in % [11]: 90%
- Pre-emergence action against LOLRI in % (Lolium rigidum (LOLRI) [12]; dosage 80 g/ha): 100%
- Pre-emergence action against LOLRI in % (Lolium rigidum (LOLRI) [12]; dosage 320 g/ha): 100%
- Post-emergence action against POLCO in % [13]: 80%
- Post-emergence action against LOLRI in % (Lolium rigidum (LOLRI) [14]; dosage 80 g/ha): 90%
- Post-emergence action against LOLRI in % (Lolium rigidum (LOLRI) [14]; dosage 320 g/ha): 90%
- Post-emergence action against ALOMY in % ([15]; 80 g/ha): 100%
- Post-emergence action against ALOMY in % ([15]; 320 g/ha): 100%
- Post-emergence action against VIOTR in % (Viola tricolor (VIOTR) [16]; 80 g/ha): 90%
- Post-emergence action against VIOTR in % (Viola tricolor (VIOTR) [16]; 320 g/ha): 90%
- Pre-emergence action against SETVI in % (Setaria viridis (SETVI) [17]): 100%
- Pre-emergence action against VERPE in % [18]: 100%
- Pre-emergence action against AMARE in % ([19]; 80 g/ha): 100%
- Pre-emergence action against AMARE in % ([19]; 320 g/ha): 100%
- Post-emergence action against AVEFA in % (Avena fatua (AVEFA) [20]; 80 g/ha): 90%
- Post-emergence action against AVEFA in % (Avena fatua (AVEFA) [20]; 320 g/ha): 90%
- Pre-emergence action against VIOTR in % (Viola tricolor (VIOTR) [21]; 320 g/ha, Viola tricolor): 100%
- Pre-emergence action against VIOTR in % (Viola tricolor (VIOTR) [21]; dosage 80 g/ha): 100%
- Post-emergence action against PHBPU in % ([22]; dosage 80 g/ha): 90%
- Post-emergence action against PHBPU in % ([22]; dosage 320 g/ha): 90%
